From patent US20230190924A1, “ANTIGEN OF ALLERGY AND EPITOPE THEREOF” (HOYU CO., LTD., priority 2017, published 2023)

Tested on: IgE antibodies from patients
Assay: Epitope mapping (2) overlapping (10-amino-acid peptides) and (3) alanine scanning on peptide arrays
Format: binding, human
Conditions: overlapping peptides with flanking sequence
How it was run: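 Overlapping 10-mer peptides shifted by one residue, and alanine-substituted peptides, spotted on cellulose and probed with patient and non-egg-allergic sera; IgE binding read by anti-human IgE-HRP chemiluminescence. Signal expressed relative to parent sequence and graded in bands from <20% (no binding) to ≥90% (retained binding).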

Binding to IgE antibodies from patients, sequence comprising a region carboxy-terminally adjacent to the epitope, binding to IgE antibodies from patients:
SEQ ID NO: 476: sequence comprising a region carboxy-terminally adjacent to epitope 20 (AINIKIGSHE; epitope)
SEQ ID NO: 631: sequence comprising a region carboxy-terminally adjacent to epitope 41 (QELLFGRLD; epitope)
SEQ ID NO: 542: sequence comprising a region carboxy-terminally adjacent to epitope 27 (YDAEKKRE; epitope)
SEQ ID NO: 535: sequence comprising a region carboxy-terminally adjacent to epitope 27 (YDAEKKREY; epitope)
SEQ ID NO: 624: sequence comprising a region carboxy-terminally adjacent to epitope 40 (KLEFLLSKK; epitope)
SEQ ID NO: 360: sequence comprising a region carboxy-terminally adjacent to epitope 6 (PSAIISKLMA; epitope)
SEQ ID NO: 665: sequence comprising a region carboxy-terminally adjacent to epitope 46 (SDSASGET; epitope)
SEQ ID NO: 381: sequence comprising a region carboxy-terminally adjacent to epitope 8 (LPTETPLVS; epitope)
SEQ ID NO: 465: sequence comprising a region carboxy-terminally adjacent to epitope 19 (VKFNYSMPAN; epitope)
SEQ ID NO: 577: sequence comprising a region carboxy-terminally adjacent to epitope 35 (LNPISAKVE; epitope)
SEQ ID NO: 595: sequence comprising a region carboxy-terminally adjacent to epitope 37 (AKVAVKLHQK; epitope)
SEQ ID NO: 660: sequence comprising a region carboxy-terminally adjacent to epitope 46 (DSDSASGET; epitope)
SEQ ID NO: 551: sequence comprising a region carboxy-terminally adjacent to epitope 30 (QRKFVKIE; epitope)

Binding to IgE antibodies from patients, sequence comprising a region amino-terminally adjacent to the epitope, binding to IgE antibodies from patients:
SEQ ID NO: 583: sequence comprising a region amino-terminally adjacent to epitope 36 (DIFELGLDG; epitope)
SEQ ID NO: 409: sequence comprising a region amino-terminally adjacent to epitope 10 (LQQVMKTVVE; epitope)
SEQ ID NO: 342: sequence comprising a region amino-terminally adjacent to epitope 4 (DAITALKKIA; epitope)
SEQ ID NO: 363: sequence comprising a region amino-terminally adjacent to epitope 6 (VVNSPRT; epitope)
SEQ ID NO: 498: sequence comprising a region amino-terminally adjacent to epitope 21 (ALAAPGHGID; epitope)
SEQ ID NO: 319: sequence comprising a region amino-terminally adjacent to epitope 1 (LKVRSPQVEE; epitope)
SEQ ID NO: 422: sequence comprising a region amino-terminally adjacent to epitope 11 (PMKFDAKIDV; epitope)
SEQ ID NO: 565: sequence comprising a region amino-terminally adjacent to epitope 34 (QDGTKVKLY; epitope)
SEQ ID NO: 492: sequence comprising a region amino-terminally adjacent to epitope 21 (LAAPGHG; epitope)
SEQ ID NO: 550: sequence comprising a region amino-terminally adjacent to epitope 30 (EDTCTGACK; epitope)

Same assay, conditions: procedures (B) overlapping and (C) alanine scanning

Region within the epitope important for binding to IgE antibodies from patients, important for binding:
SEQ ID NO: 608: region in epitope 38 (PTKGYLQMSS; epitope)
SEQ ID NO: 534: region in epitope 27 (GICGKYDAE; epitope)
SEQ ID NO: 658: region in epitope 46 (MKMSFDSDS; epitope)
SEQ ID NO: 598: region in epitope 37 (SGIVTPGA; epitope)
SEQ ID NO: 619: region in epitope 39 (DRKVALTDMT; epitope)
SEQ ID NO: 346: region in epitope 4 (AWKDPKTVQG; epitope)
SEQ ID NO: 455: region in epitope 17 (TDSSKWKLCA; epitope)
SEQ ID NO: 579: region in epitope 35 (VSKRVS; epitope)
SEQ ID NO: 616: region in epitope 39 (LLDRKVALT; epitope)
SEQ ID NO: 379: region in epitope 8 (KALQGWKELP; epitope)
SEQ ID NO: 333: region in epitope 3 (REDKMKLAL; epitope)
SEQ ID NO: 562: region in epitope 34 (DEPLNV; epitope)
SEQ ID NO: 647: region in epitope 42 (RLDKDTLQ; epitope)
SEQ ID NO: 407: region in epitope 9 (ELLQQ; epitope)
SEQ ID NO: 397: region in epitope 8 (KALQGWKELP; epitope)
SEQ ID NO: 589: region in epitope 37 (IVTPGAKVAV; epitope)
SEQ ID NO: 473: region in epitope 20 (INIKIGSH; epitope)
SEQ ID NO: 391: region in epitope 8 (GWKELPTET; epitope)
SEQ ID NO: 392: region in epitope 8 (GWKELPTETP; epitope)
SEQ ID NO: 636: region in epitope 41 (SGYLKMFG; epitope)
SEQ ID NO: 509: region in epitope 21 (DKLYFDGKT; epitope)
SEQ ID NO: 440: region in epitope 15 (SSNSKSS; epitope)
ELL (epitope) [SEQ ID NO: 637]
SEQ ID NO: 343: region in epitope 4 (LKKIAWKDP; epitope)
SEQ ID NO: 464: region in epitope 19 (FNEVKFNYSM; epitope)
SEQ ID NO: 522: region in epitope 23 (RSFVKLE; epitope)
